Values joined by “and” are separate entries in the source; they are usually repeats but may differ in a detail not shown here. Equal values may be shown once. Toxic doses and inconclusive results are not listed. Rule for the calls: active = survival T/C of 150% or more; inactive = T/C below 125% in these data.
System: P388 leukemia ip, CD2F1 mice, survival T/C
Assay: NCI In Vivo Anticancer Drug Screen. Data for tumor model P388 Leukemia (intraperitoneal) in CD2F1 (CDF1) mice
Settings: endpoint: median survival time, higher = longer survival
Summary of the method: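 Mice carrying the transplanted tumor received test compound or vehicle. Survival was recorded in each group, and the value is the treated-group measurement divided by that of the vehicle-treated control group.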

[1] = dose: 50.0 mg/kg/injection, schedule: Q01DX005 (ip), vehicle: saline with Tween-80
[2] = dose: 100.0 mg/kg/injection, schedule: Q01DX005 (ip), vehicle: saline with Tween-80
[3] = dose: 50.0 mg/kg/injection, schedule: Q01DX009 (ip), vehicle: saline with Tween-80
[4] = dose: 100.0 mg/kg/injection, schedule: Q01DX009 (ip), vehicle: saline with Tween-80
[5] = dose: 50.0 mg/kg/injection, schedule: Q01DX005 (ip), vehicle: saline
[6] = dose: 100.0 mg/kg/injection, schedule: Q01DX005 (ip), vehicle: saline
[7] = dose: 12.5 mg/kg/injection, schedule: Q01DX009 (ip), vehicle: saline
[8] = dose: 25.0 mg/kg/injection, schedule: Q01DX009 (ip), vehicle: saline
[9] = dose: 50.0 mg/kg/injection, schedule: Q01DX009 (ip), vehicle: saline
[10] = dose: 100.0 mg/kg/injection, schedule: Q01DX009 (ip), vehicle: saline
[11] = dose: 200.0 mg/kg/injection, schedule: Q01DX009 (ip), vehicle: saline

Measured: T/C

COc1ccc(CCNC(=O)c2ccc(CSc3ccc(Cl)cc3)o2)cc1OC
inactive: [1] 105 % of control | [2] 100 % of control | dose: 200.0 mg/kg/injection, schedule: Q01DX005 (ip), vehicle: saline with Tween-80 93 % of control

COC(=O)/C=C(\C(=O)OC)c1ccccc1C(C(=O)OC)c1ccccc1CC(=O)OC (stereo not given)
inactive: [3] 108 % of control | [4] 106 % of control | dose: 200.0 mg/kg/injection, schedule: Q01DX009 (ip), vehicle: saline with Tween-80 108 % of control

C=C1CCN(c2ccc(OCC)cc2)C1=O
inactive: dose: 4.0 mg/kg/injection, schedule: Q01DX009 (ip), vehicle: saline + alcohol 102 % of control and 113 % of control and 94 % of control | dose: 8.0 mg/kg/injection, schedule: Q01DX009 (ip), vehicle: saline + alcohol 101 % of control and 108 % of control and 91 % of control | dose: 16.0 mg/kg/injection, schedule: Q01DX009 (ip), vehicle: saline + alcohol 100 % of control and 91 % of control | dose: 32.0 mg/kg/injection, schedule: Q01DX009 (ip), vehicle: saline + alcohol 106 % of control and 111 % of control and 94 % of control | dose: 64.0 mg/kg/injection, schedule: Q01DX009 (ip), vehicle: saline + alcohol 100 % of control and 108 % of control and 95 % of control

COc1ccc(NC(=O)NNC(N)=S)cc1
inactive: [3] 96 % of control | [4] 91 % of control

C=C1C(=O)O[C@H]2/C=C(/C)C3=CC(=O)[C@@](C)(C[C@@H](OC(=O)/C(C)=C\C)C12)O3 (stereo not given in full)
inactive: dose: 1.56 mg/kg/injection, schedule: Q01DX005 (ip), vehicle: Klucel (hydroxypropylcellulose) (HPC) 102 % of control | dose: 3.12 mg/kg/injection, schedule: Q01DX005 (ip), vehicle: Klucel (hydroxypropylcellulose) (HPC) 105 % of control | dose: 6.25 mg/kg/injection, schedule: Q01DX005 (ip), vehicle: Klucel (hydroxypropylcellulose) (HPC) 105 % of control | dose: 12.5 mg/kg/injection, schedule: Q01DX005 (ip), vehicle: Klucel (hydroxypropylcellulose) (HPC) 89 % of control and 96 % of control

O=C(Nc1ccc(N=C=S)cc1Cl)c1cc(Br)cc(Br)c1O
inactive: dose: 25.0 mg/kg/injection, schedule: Q01DX001 (ip), vehicle: Klucel (hydroxypropylcellulose) (HPC) 106 % of control | dose: 50.0 mg/kg/injection, schedule: Q01DX001 (ip), vehicle: Klucel (hydroxypropylcellulose) (HPC) 100 % of control | dose: 100.0 mg/kg/injection, schedule: Q01DX001 (ip), vehicle: Klucel (hydroxypropylcellulose) (HPC) 92 % of control and 95 % of control

CC(=O)Oc1n[nH]c(=O)n1-c1ccccc1
inactive: dose: 50.0 mg/kg/injection, schedule: Q01DX005 (ip), vehicle: Klucel + Tween-80 107 % of control | dose: 100.0 mg/kg/injection, schedule: Q01DX005 (ip), vehicle: Klucel + Tween-80 107 % of control | dose: 200.0 mg/kg/injection, schedule: Q01DX005 (ip), vehicle: Klucel + Tween-80 98 % of control

Cc1cc(NC(=S)SCc2ccc(F)cc2)c([N+](=O)[O-])cc1C
inactive: dose: 50.0 mg/kg/injection, schedule: Q01DX009 (ip), vehicle: suspension in saline 93 % of control | dose: 100.0 mg/kg/injection, schedule: Q01DX009 (ip), vehicle: suspension in saline 90 % of control | dose: 200.0 mg/kg/injection, schedule: Q01DX009 (ip), vehicle: suspension in saline 98 % of control

CC(O)CCOCCCBr (stereo not given)
inactive: [5] 100 % of control | [6] 102 % of control | dose: 200.0 mg/kg/injection, schedule: Q01DX005 (ip), vehicle: saline 102 % of control

C#CCC(N)C(=O)O (stereo not given)
inactive: dose: 12.5 mg/kg/injection, schedule: Q01DX005 (ip), vehicle: saline 107 % of control | dose: 25.0 mg/kg/injection, schedule: Q01DX005 (ip), vehicle: saline 111 % of control | [5] 100 % of control and 106 % of control | [6] 108 % of control

O=NN(CCCl)C(=O)OCc1ccccc1
inactive: dose: 3.12 mg/kg/injection, schedule: Q01DX001 (ip), vehicle: saline with Tween-80 101 % of control | dose: 6.25 mg/kg/injection, schedule: Q01DX001 (ip), vehicle: saline with Tween-80 100 % of control and 123 % of control | dose: 12.5 mg/kg/injection, schedule: Q01DX001 (ip), vehicle: saline with Tween-80 108 % of control and 113 % of control | dose: 25.0 mg/kg/injection, schedule: Q01DX001 (ip), vehicle: saline with Tween-80 110 % of control and 123 % of control

NC(=O)N/N=C/Cn1ccc(=O)[nH]c1=O
inactive: dose: 50.0 mg/kg/injection, schedule: Q01DX005 (ip), vehicle: Klucel (hydroxypropylcellulose) (HPC) 99 % of control | dose: 100.0 mg/kg/injection, schedule: Q01DX005 (ip), vehicle: Klucel (hydroxypropylcellulose) (HPC) 97 % of control | dose: 200.0 mg/kg/injection, schedule: Q01DX005 (ip), vehicle: Klucel (hydroxypropylcellulose) (HPC) 90 % of control

CC(CO)NC(=O)C1C=C2c3cccc4[nH]cc(c34)CC2N(C)C1 (stereo not given)
inactive: dose: 9.0 mg/kg/injection, schedule: Q01DX009 (ip), vehicle: saline 97 % of control | dose: 18.0 mg/kg/injection, schedule: Q01DX009 (ip), vehicle: saline 91 % of control | dose: 44.5 mg/kg/injection, schedule: Q01DX009 (ip), vehicle: saline 97 % of control | dose: 89.0 mg/kg/injection, schedule: Q01DX009 (ip), vehicle: saline 97 % of control | dose: 178.0 mg/kg/injection, schedule: Q01DX009 (ip), vehicle: saline 106 % of control

S=C(N\N=C/C(/C=C/c1ccccc1)=N\NC(=S)Nc1ccc(Br)cc1)Nc1ccc(Br)cc1
inactive: dose: 100.0 mg/kg/injection, schedule: Q04DX002 (ip), vehicle: Klucel (hydroxypropylcellulose) (HPC) 106 % of control | dose: 200.0 mg/kg/injection, schedule: Q04DX002 (ip), vehicle: Klucel (hydroxypropylcellulose) (HPC) 97 % of control | dose: 400.0 mg/kg/injection, schedule: Q04DX002 (ip), vehicle: Klucel (hydroxypropylcellulose) (HPC) 95 % of control

O=NNc1ccc(Oc2ccc(NN=O)cc2)cc1
inactive: dose: 3.12 mg/kg/injection, schedule: Q01DX009 (ip), vehicle: water 96 % of control | dose: 6.25 mg/kg/injection, schedule: Q01DX009 (ip), vehicle: water 96 % of control | dose: 12.5 mg/kg/injection, schedule: Q01DX009 (ip), vehicle: water 92 % of control | dose: 25.0 mg/kg/injection, schedule: Q01DX009 (ip), vehicle: water 100 % of control and 93 % of control | dose: 50.0 mg/kg/injection, schedule: Q01DX009 (ip), vehicle: water 100 % of control and 93 % of control | dose: 100.0 mg/kg/injection, schedule: Q01DX009 (ip), vehicle: water 91 % of control | dose: 200.0 mg/kg/injection, schedule: Q01DX009 (ip), vehicle: water 88 % of control

CCCCCCC(=O)/C=C/c1ccc(OC(=O)c2ccc([N+](=O)[O-])cc2)cc1
inactive: [7] 105 % of control | [8] 100 % of control | [9] 103 % of control and 97 % of control | [10] 92 % of control | [11] 92 % of control

O=C1CCCC2=C1C(c1ccccc1)C1=C(CCCC1=O)O2
inactive: dose: 60.0 mg/kg/injection, schedule: Q01DX005 (ip), vehicle: saline with Tween-80 100 % of control | dose: 120.0 mg/kg/injection, schedule: Q01DX005 (ip), vehicle: saline with Tween-80 94 % of control | dose: 240.0 mg/kg/injection, schedule: Q01DX005 (ip), vehicle: saline with Tween-80 92 % of control

Clc1cc(Cl)c(C[N+]23CN4CN(CN(C4)C2)C3)cc1Cl
inactive: dose: 6.25 mg/kg/injection, schedule: Q01DX009 (ip), vehicle: saline 102 % of control | [7] 100 % of control and 107 % of control | [8] 106 % of control and 109 % of control | [3] 122 % of control | [9] 111 % of control and 120 % of control | [10] 117 % of control

CC(C)CC(NC(=O)OCc1ccccc1)C(=O)O (stereo not given)
inactive: [1] 105 % of control | [2] 101 % of control

C/C(=N/NC(N)=S)C1CCC2C3CCC4CCCCC4(C)C3CC(O)C12C (stereo not given)
inactive: dose: 12.5 mg/kg/injection, schedule: Q01DX009 (ip), vehicle: saline with Tween-80 101 % of control | dose: 25.0 mg/kg/injection, schedule: Q01DX009 (ip), vehicle: saline with Tween-80 93 % of control | [3] 92 % of control

c1cc2onc3c4cccc5onc(c(c1)c23)c54
inactive: dose: 8.75 mg/kg/injection, schedule: Q01DX005 (ip), vehicle: Klucel (hydroxypropylcellulose) (HPC) 99 % of control | dose: 17.5 mg/kg/injection, schedule: Q01DX005 (ip), vehicle: Klucel (hydroxypropylcellulose) (HPC) 93 % of control | dose: 35.0 mg/kg/injection, schedule: Q01DX005 (ip), vehicle: Klucel (hydroxypropylcellulose) (HPC) 99 % of control

C/C=C(\C)C(N)=O
inactive: [9] 90 % of control | [10] 100 % of control | [11] 95 % of control

From PubChem BioAssay AID330 (DTP/NCI, 2004)
